# Test system: S aureus A798
# Experiment: Minimal inhibitory concentration (MIC), microdilution method in cation-adjusted Mueller-Hinton Broth following NCCLS guidelines
# Type: cell-based
# Settings: pH of test medium 7.2-7.3
# Method in brief: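 Broth microdilution per NCCLS M7-A4 in cation-adjusted Mueller-Hinton broth at pH 7.2-7.3; MIC reported in mg/l.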
SMILES,MIC,MIC S aureus A798
"COc1ccc2nccc(N3CCN(C[C@@H]4CN(c5ccc(OC(F)(F)F)cc5)C(=O)O4)CC3)c2n1 [Example 11, (R)-5-[4-(6-Methoxy-[1,5]naphthyridin-4-yl)-piperazin-1-ylmethyl]-3-(4-trifluoromethoxy-phenyl)-oxazolidin-2-one]",0.063 µg/mL,
"COc1ccc2nccc(N3CC(CN(C)C[C@H]4CN(c5ccc6c(c5)OCCO6)C(=O)O4)C3)c2n1 [Example 118, (S)-3-(2,3-Dihydro-benzo[1,4]dioxin-6-yl)-5-({[1-(6-methoxy-[1,5]naphthyridin-4-yl)-azetidin-3-ylmethyl]-methyl-amino}-methyl)-oxazolidin-2-one]",0.25 µg/mL,
"COc1ccc2nccc(N3CC(CNC(=O)[C@@H]4CN(c5ccc(C)c(F)c5)C(=O)O4)C3)c2n1 [Example 130, (S)-3-(3-Fluoro-4-methyl-phenyl)-2-oxo-oxazolidine-5-carboxylic acid [1-(6-methoxy-[1,5]naphthyridin-4-yl)-azetidin-3-ylmethyl]-amide]",0.25 µg/mL,
"COc1ccc2nccc(N3CCC(O)(CNC[C@@H]4CN(c5ccc6c(c5)NC(=O)CS6)C(=O)O4)C3)c2n1 (mixture of isomers) [Example 129, 6-[(R)-5-({[(RS)-3-Hydroxy-1-(6-methoxy-[1,5]naphthyridin-4-yl)-pyrrolidin-3-ylmethyl]-amino}-methyl)-2-oxo-oxazolidin-3-yl]-4H-benzo[1,4]thiazin-3-one]",0.063 µg/mL,
"COc1ccc2nccc(N3CC[C@@H](NC(=O)[C@@H]4CN(c5ccc(C)c(F)c5)C(=O)O4)C3)c2n1 [Example 62, (S)-3-(3-Fluoro-4-methyl-phenyl)-2-oxo-oxazolidine-5-carboxylic acid [(R)-1-(6-methoxy-[1,5]naphthyridin-4-yl)-pyrrolidin-3-yl]-amide]",≤ 0.031 µg/mL,
"COc1ccc2nccc(N3C[C@H]4CCN(C(=O)[C@@H]5CN(c6ccc7c(c6)OCCO7)C(=O)O5)[C@H]4C3)c2n1 (mixture of isomers) [Example 95, (S)-3-(2,3-Dihydro-benzo[1,4]dioxin-6-yl)-5-[(3aR*,6aR*)-5-(6-methoxy-[1,5]naphthyridin-4-yl)-hexahydro-pyrrolo[3,4-b]pyrrole-1-carbonyl]-oxazolidin-2-one]",0.125 µg/mL,
"COc1ccc2nccc(N3CC(N(C)C[C@@H]4CN(c5ccc6scnc6c5)C(=O)O4)C3)c2n1 [Example 146, (R)-3-Benzothiazol-5-yl-5-({[1-(6-methoxy-[1,5]naphthyridin-4-yl)-azetidin-3-yl]-methyl-amino}-methyl)-oxazolidin-2-one]",0.063 µg/mL,
"COc1ccc2nccc(N3CC(N(C)C[C@@H]4CN(c5cccc(F)c5)C(=O)O4)C3)c2n1 [Example 147, (R)-3-(3-Fluoro-phenyl)-5-({[1-(6-methoxy-[1,5]naphthyridin-4-yl)-azetidin-3-yl]-methyl-amino}-methyl)-oxazolidin-2-one]",0.25 µg/mL,
"COc1ccc2nccc(N3CCN(C[C@@H]4CN(c5cccc(C#N)c5)C(=O)O4)CC3)c2n1 [Example 21, 3-{(R)-5-[4-(6-Methoxy-[1,5]naphthyridin-4-yl)-piperazin-1-ylmethyl]-2-oxo-oxazolidin-3-yl}-benzonitrile]",0.25 µg/mL,
"COc1ccc2nccc(N3CC(N(C)C[C@@H]4CN(c5ccc6c(c5)NC(=O)CS6)C(=O)O4)C3)c2n1 [Example 56, 6-[(R)-5-({[1-(6-Methoxy-[1,5]naphthyridin-4-yl)-azetidin-3-yl]-methyl-amino}-methyl)-2-oxo-oxazolidin-3-yl]-4H-benzo[1,4]thiazin-3-one]",≤ 0.031 µg/mL,
"COc1ccc2nccc(N3CCC(O)(CC4CN(c5ccc6c(c5)OCCO6)C(=O)O4)CC3)c2n1 (racemic) [Example 5, (RS)-3-(2,3-Dihydro-benzo[1,4]dioxin-6-yl)-5-[4-hydroxy-1-(6-methoxy-[1,5]naphthyridin-4-yl)-piperidin-4-ylmethyl]-oxazolidin-2-one]",≤ 0.031 µg/mL,
"O=C1O[C@H](CN2CCN(c3ccnc4ccccc34)CC2)CN1c1ccc2c(c1)OCCO2 [Example 99, (R)-3-(2,3-Dihydro-benzo[1,4]dioxin-6-yl)-5-(4-quinolin-4-yl-piperazin-1-ylmethyl)-oxazolidin-2-one]",≤ 0.031 µg/mL,
"COc1ccc2nccc(N3CC(NC(=O)[C@@H]4CN(c5ccc6c(c5)OCCO6)C(=O)O4)C3)c2n1 [Example 116, (S)-3-(2,3-Dihydro-benzo[1,4]dioxin-6-yl)-2-oxo-oxazolidine-5-carboxylic acid[1-(6-methoxy-[1,5]naphthyridin-4-yl)-azetidin-3-yl]-amide]",,<=0.031 mg/l
"COc1ccc2nccc(N3CC[C@H](NC[C@@H]4CN(c5ccc6c(c5)NC(=O)CS6)C(=O)O4)C3)c2n1 [Example 70, 6-((R)-5-{[(S)-1-(6-Methoxy-[1,5]naphthyridin-4-yl)-pyrrolidin-3-ylamino]-methyl}-2-oxo-oxazolidin-3-yl)-4H-benzo[1,4]thiazin-3-one]",≤ 0.031 µg/mL,

# The next lines start with the values.
MIC,MIC S aureus A798,SMILES
≤ 0.031 µg/mL,,"COc1ccc2nccc(N3CCN(CC4CN(c5ccc6c(c5)OCCO6)C(=O)O4)CC3)c2n1 (racemic) [Example 8, (RS)-3-(2,3-Dihydro-benzo[1,4]dioxin-6-yl)-5-[4-(6-methoxy-[1,5]naphthyridin-4-yl)-piperazin-1-ylmethyl]-oxazolidin-2-one]"
≤ 0.031 µg/mL,,"CCc1ccc(N2C[C@@H](CN3CCN(c4ccnc5ccc(OC)nc45)CC3)OC2=O)cc1 [Example 26, (R)-3-(4-Ethyl-phenyl)-5-[4-(6-methoxy-[1,5]naphthyridin-4-yl)-piperazin-1-ylmethyl]-oxazolidin-2-one]"
≤ 0.031 µg/mL,,"COc1ccc2nccc(N3CC(NC[C@@H]4CN(c5ccc6c(c5)NC(=O)CO6)C(=O)O4)C3)c2n1 [Example 52, 6-((R)-5-{[1-(6-Methoxy-[1,5]naphthyridin-4-yl)-azetidin-3-ylamino]-methyl}-2-oxo-oxazolidin-3-yl)-4H-benzo[1,4]oxazin-3-one]"
≤ 0.031 µg/mL,,"COc1ccc2nccc(N3CCC(CN(C)C[C@@H]4CN(c5ccc6c(c5)NC(=O)CS6)C(=O)O4)C3)c2n1 (mixture of isomers) [Example 117, 6-[(R)-5-({[(RS)-1-(6-Methoxy-[1,5]naphthyridin-4-yl)-pyrrolidin-3-ylmethyl]-methyl-amino}-methyl)-2-oxo-oxazolidin-3-yl]-4H-benzo[1,4]thiazin-3-one]"
≤ 0.031 µg/mL,,"COc1ccc2nccc(N3CC[C@H](NCCC4CN(c5ccc6c(c5)NC(=O)CS6)C(=O)O4)C3)c2n1 (mixture of isomers) [Example 86, 6-((RS)-5-{2-[(S)-1-(6-Methoxy-[1,5]naphthyridin-4-yl)-pyrrolidin-3-ylamino]-ethyl}-2-oxo-oxazolidin-3-yl)-4H-benzo[1,4]thiazin-3-one]"
≤ 0.031 µg/mL,,"COc1ccc2nccc(N3CCN(C[C@H]4CN(c5ccc6c(c5)NC(=O)CS6)C(=O)O4)CC3)c2n1 [Example 39, 6-{(S)-5-[4-(6-Methoxy-[1,5]naphthyridin-4-yl)-piperazin-1-ylmethyl]-2-oxo-oxazolidin-3-yl}-4H-benzo[1,4]thiazin-3-one]"
≤ 0.031 µg/mL,,"COc1ccc2nccc(N3CCC(NC[C@@H]4CN(c5ccc6c(c5)NC(=O)CS6)C(=O)O4)CC3)c2n1 [Example 119, 6-((R)-5-{[1-(6-Methoxy-[1,5]naphthyridin-4-yl)-piperidin-4-ylamino]-methyl}-2-oxo-oxazolidin-3-yl)-4H-benzo[1,4]thiazin-3-one]"
≤ 0.031 µg/mL,,"COc1ccc2nccc(N3CC(N(C)C[C@@H]4CN(c5ccc(C)c(C)c5)C(=O)O4)C3)c2n1 [Example 138, (R)-3-(3,4-Dimethyl-phenyl)-5-({[1-(6-methoxy-[1,5]naphthyridin-4-yl)-azetidin-3-yl]-methyl-amino}-methyl)-oxazolidin-2-one]"
≤ 0.031 µg/mL,,"COc1ccc2nccc(N3CC(NC[C@@H]4CN(c5ccc6c(c5)NC(=O)CS6)C(=O)O4)C3)c2c1 [Example 49, 6-((R)-5-{[1-(6-Methoxy-quinolin-4-yl)-azetidin-3-ylamino]-methyl}-2-oxo-oxazolidin-3-yl)-4H-benzo[1,4]thiazin-3-one]"
≤ 0.031 µg/mL,,"COc1ccc2nccc(N3CC(NC[C@@H]4CN(c5ccc6c(c5)OCCO6)C(=O)O4)C3)c2n1 [Example 51, (R)-3-(2,3-Dihydro-benzo[1,4]dioxin-6-yl)-5-{[1-(6-methoxy-[1,5]naphthyridin-4-yl)-azetidin-3-ylamino]-methyl}-oxazolidin-2-one]"
≤ 0.031 µg/mL,,"COc1ccc2ncc(F)c(N3CC(NC[C@@H]4CN(c5ccc6c(c5)NC(=O)CO6)C(=O)O4)C3)c2n1 [Example 45, 6-((R)-5-{[1-(3-Fluoro-6-methoxy-[1,5]naphthyridin-4-yl)-azetidin-3-ylamino]-methyl}-2-oxo-oxazolidin-3-yl)-4H-benzo[1,4]oxazin-3-one]"
≤ 0.031 µg/mL,,"COc1ccc2nccc(N3CC(CNC[C@@H]4CN(c5ccc6c(c5)NC(=O)CS6)C(=O)O4)C3)c2c1 [Example 186, 6-[(R)-5-({[1-(6-Methoxy-quinolin-4-yl)-azetidin-3-ylmethyl]-amino}-methyl)-2-oxo-oxazolidin-3-yl]-4H-benzo[1,4]thiazin-3-one]"
≤ 0.031 µg/mL,,"COc1ccc2nccc(N3CC[C@H](NC(=O)[C@@H]4CN(c5ccc6c(c5)OCCO6)C(=O)O4)C3)c2n1 [Example 60, (S)-3-(2,3-Dihydro-benzo[1,4]dioxin-6-yl)-2-oxo-oxazolidine-5-carboxylic acid [(S)-1-(6-methoxy-[1,5]naphthyridin-4-yl)-pyrrolidin-3-yl]-amide]"
≤ 0.031 µg/mL,,"COc1ccc2nccc(N3CCN(C[C@@H]4CN(c5ccc6c(c5)OCO6)C(=O)O4)CC3)c2n1 [Example 35, (R)-3-Benzo[1,3]dioxol-5-yl-5-[4-(6-methoxy-[1,5]naphthyridin-4-yl)-piperazin-1-ylmethyl]-oxazolidin-2-one]"
≤ 0.031 µg/mL,,"COc1ccc2nccc(N3CC(N(C)C[C@@H]4CN(c5ccc(Br)c(F)c5)C(=O)O4)C3)c2n1 [Example 141, (R)-3-(4-Bromo-3-fluoro-phenyl)-5-({[1-(6-methoxy-[1,5]naphthyridin-4-yl)-azetidin-3-yl]-methyl-amino}-methyl)-oxazolidin-2-one]"

# Reference: patent publication US8217029B2, “Oxazolidinone antibiotics” (Actelion Pharmaceuticals Ltd, priority 2007, dated 2012)
